Reference: patent US9862716B2, “TRKA kinase inhibitors, compositions and methods thereof” (Merck Sharp & Dohme Corp., priority 2014, dated 2018)
pIC50: −log10 of the molar value.

target: T1, human TrkA receptor (Homo sapiens, UniProt P04629); test: DiscoverX PathHunter TrkA functional assay (NGF-stimulated U2OS cells); assay type: cell-based; settings: U2OS cells expressing human TrkA-PK, Shc1-EA and p75NTR; compound 1 h, then NGF at ~80% of maximal response for 3 h; luminescence
T1 construct: host or cells: U2OS cells (PathHunter cell line)
T1 sequence (P04629 33-796): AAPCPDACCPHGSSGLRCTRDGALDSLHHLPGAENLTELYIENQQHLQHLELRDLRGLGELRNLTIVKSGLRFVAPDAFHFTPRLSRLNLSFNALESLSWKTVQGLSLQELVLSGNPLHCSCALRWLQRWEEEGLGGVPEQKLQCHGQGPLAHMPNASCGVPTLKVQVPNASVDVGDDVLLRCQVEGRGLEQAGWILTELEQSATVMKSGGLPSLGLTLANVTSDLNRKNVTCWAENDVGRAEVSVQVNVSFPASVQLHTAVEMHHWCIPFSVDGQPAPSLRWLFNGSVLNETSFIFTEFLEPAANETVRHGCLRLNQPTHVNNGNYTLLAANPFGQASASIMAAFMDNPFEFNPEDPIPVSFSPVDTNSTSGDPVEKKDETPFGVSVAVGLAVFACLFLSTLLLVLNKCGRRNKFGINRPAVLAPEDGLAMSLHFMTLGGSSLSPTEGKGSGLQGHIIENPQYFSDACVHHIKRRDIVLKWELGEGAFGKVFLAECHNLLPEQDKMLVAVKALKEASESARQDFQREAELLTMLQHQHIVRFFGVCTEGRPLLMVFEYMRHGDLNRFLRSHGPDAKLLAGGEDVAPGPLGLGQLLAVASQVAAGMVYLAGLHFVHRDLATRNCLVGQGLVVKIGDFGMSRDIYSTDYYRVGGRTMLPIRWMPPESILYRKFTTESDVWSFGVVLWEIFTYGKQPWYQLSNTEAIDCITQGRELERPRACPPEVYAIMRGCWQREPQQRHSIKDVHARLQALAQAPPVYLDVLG

SMILES	pIC50
O=C(Nc1c(-c2ccccc2)nc2ccccn12)c1cc(-c2ncccn2)c(Cl)cc1F [Compound 30, 4-chloro-2-fluoro-N-(2-phenylimidazo[1,2-a]pyridin-3-yl)-5-pyrimidin-2-ylbenzamide]	7.40
Cn1ccc(-c2cc(C(=O)Nc3nc4ccccc4nc3-c3ccccc3)ccc2C(F)(F)F)n1 [Compound 31, 3-(1-methyl-1H-pyrazol-3-yl)-N-(3-phenylquinoxalin-2-yl)-4-(trifluoromethyl) benzamide]	7.57
Cn1ccc(-c2cc(C(=O)Nc3c(-c4ccccc4)nc4ccccn34)c(O)cc2C(F)(F)F)n1 [Compound 32, 2-hydroxy-5-(1-methyl-1H-pyrazol-3-yl)-N-(2-phenylimidazo[1,2-a]pyridin-3-yl)-4-(trifluoromethyl) benzamide]	6.32
Cn1ccc(-c2cc(C(=O)Nc3c(-c4ccccc4)nc4ccccn34)c(C#N)cc2C(F)(F)F)n1 [Compound 33, 2-cyano-5-(1-methyl-1H-pyrazol-3-yl)-N-(2-phenylimidazo[1,2-a]pyridin-3-yl)-4-(trifluoromethyl) benzamide]	6.27
O=C(Nc1c(-c2ccccc2)nc2ccccn12)c1ccc(C(F)(F)F)c(-c2nc[nH]n2)c1 [Compound 34, N-(2-phenylimidazo[1,2-a]pyridin-3-yl)-3-(1H-1,2,4-triazol-3-yl)-4-(trifluoromethyl) benzamide]	7.24
Cn1ccc(-c2cc(C(=O)Nc3c(-c4ccccc4)nc4ccccn34)c(F)cc2C(F)(F)F)n1 [Compound 35, 2-fluoro-5-(1-methyl-1H-pyrazol-3-yl)-N-(2-phenylimidazo[1,2-a]pyridin-3-yl)-4-(trifluoromethyl) benzamide]	9.31
Cn1ccc(-c2cc(C(=O)Nc3c(-c4ccccc4)nc4ccc(C(C)(C)O)cn34)ccc2C(F)(F)F)n1 [Compound 36, N-[6-(1-hydroxy-1-methylethyl)-2-phenylimidazo[1,2-a]pyridin-3-yl]-3-(1-methyl-1H-pyrazol-3-yl)-4-(trifluoromethyl) benzamide]	9.47
Cn1ccc(-c2cc(C(=O)Nc3c(-c4ccccc4)nc4ccc(CO)cn34)ccc2C(F)(F)F)n1 [Compound 37, N-[6-(hydroxymethyl)-2-phenylimidazo[1,2-a]pyridin-3-yl]-3-(1-methyl-1H-pyrazol-3-yl)-4-(trifluoromethyl) benzamide]	8.74
Cn1ccc(-c2cc(C(=O)Nc3c(-c4ccccc4)nc4c(CO)cccn34)ccc2C(F)(F)F)n1 [Compound 38, N-[8-(hydroxymethyl)-2-phenylimidazo[1,2-a]pyridin-3-yl]-3-(1-methyl-1H-pyrazol-3-yl)-4-(trifluoromethyl) benzamide]	8.62
Cn1ccc(-c2cc(C(=O)Nc3c(-c4ccccc4)nc4cc(Br)ccn34)ccc2C(F)(F)F)n1 [Compound 39, N-(7-bromo-2-phenylimidazo[1,2-a]pyridin-3-yl)-3-(1-methyl-1H-pyrazol-3-yl)-4-(trifluoromethyl) benzamide]	8.57
O=C(Nc1c(-c2ccccc2)nc2ccccn12)c1cc(-c2cc[nH]n2)c(C(F)(F)F)cc1F [Compound 40, 2-fluoro-N-(2-phenylimidazo[1,2-a]pyridin-3-yl)-5-(1H-pyrazol-3-yl)-4-(trifluoromethyl) benzamide]	8.57
C[C@H](O)c1ccn2c(NC(=O)c3ccc(C(F)(F)F)c(-c4ccn(C)n4)c3)c(-c3ccccc3)nc2c1 [Compound 41, N-{7-[(1S)-1-hydroxyethyl]-2-phenylimidazo[1,2-a]pyridin-3-yl}-3-(1-methyl-1H-pyrazol-3-yl)-4-(trifluoromethyl) benzamide]	9.02
CC(C)(O)c1ccn2c(NC(=O)c3ccc(C(F)(F)F)c(-c4ncccn4)c3)c(-c3ccccc3)nc2c1 [Compound 43, N-[7-(1-hydroxy-1-methylethyl)-2-phenylimidazo[1,2-a]pyridin-3-yl]-3-pyrimidin-2-yl-4-(trifluoromethyl) benzamide]	8.10
CC(C)(O)c1ccc2nc(-c3ccccc3)c(NC(=O)c3ccc(C(F)(F)F)c(-c4ncccn4)c3)n2c1 [Compound 44, N-[6-(1-hydroxy-1-methylethyl)-2-phenylimidazo[1,2-a]pyridin-3-yl]-3-pyrimidin-2-yl-4-(trifluoromethyl) benzamide]	8.85
COC1CN(Cc2ccn3c(NC(=O)c4ccc(C(F)(F)F)c(-c5ccn(C)n5)c4)c(-c4ccccc4)nc3c2)C1 [Compound 45, N-{7-[(3-methoxyazetidin-1-yl)methyl]-2-phenylimidazo[1,2-a]pyridin-3-yl}-3-(1-methyl-1H-pyrazol-3-yl)-4-(trifluoromethyl) benzamide]	8.30
Cc1coc(-c2cc(C(=O)Nc3c(-c4ccccc4)nc4cc(C(C)(C)O)ccn34)ccc2C(F)(F)F)n1 [Compound 46, N-[7-(1-hydroxy-1-methylethyl)-2-phenylimidazo[1,2-a]pyridin-3-yl]-3-(4-methyl-1,3-oxazol-2-yl)-4-(trifluoromethyl) benzamide]	9.36

SMILES	pIC50
Cn1ccc(-c2cc(C(=O)Nc3c(-c4ccccc4)nc4ccc(CN5CC(F)C5)cn34)ccc2C(F)(F)F)n1 [Compound 47, N-{6-[(3-fluoroazetidin-1-yl)methyl]-2-phenylimidazo[1,2-a]pyridin-3-yl}-3-(1-methyl-1H-pyrazol-3-yl)-4-(trifluoromethyl) benzamide]	8.06
Cn1ccc(-c2cc(C(=O)Nc3c(-c4ccccc4)nc4cc(C(C)(C)O)ccn34)c(F)cc2C(F)(F)F)n1 [Compound 50, 2-fluoro-N-[7-(1-hydroxy-1-methylethyl)-2-phenylimidazo[1,2-a]pyridin-3-yl]-5-(1-methyl-1H-pyrazol-3-yl)-4-(trifluoromethyl) benzamide]	9.35
CC(C)(O)c1ccn2c(NC(=O)c3cc(-c4ncccn4)c(C(F)(F)F)cc3F)c(-c3ccccc3)nc2c1 [Compound 53, 2-fluoro-N-[7-(1-hydroxy-1-methylethyl)-2-phenylimidazo[1,2-a]pyridin-3-yl]-5-pyrimidin-2-yl-4-(trifluoromethyl) benzamide]	8.96
COc1ccn2c(NC(=O)c3cc(-c4ncccn4)c(C(F)(F)F)cc3F)c(-c3ccccc3)nc2c1 [Compound 59, 2-fluoro-N-(7-methoxy-2-phenylimidazo[1,2-a]pyridin-3-yl)-5-pyrimidin-2-yl-4-(trifluoromethyl) benzamide]	8.77
Cc1ccn(-c2cc(C(=O)Nc3c(-c4ccccc4)nc4cc(C(C)(C)O)ccn34)ccc2C(F)(F)F)n1 [Compound 60, N-[7-(1-hydroxy-1-methylethyl)-2-phenylimidazo[1,2-a]pyridin-3-yl]-3-(3-methyl-1H-pyrazol-1-yl)-4-(trifluoromethyl) benzamide]	7.85
Cn1ccc(-c2cc(C(=O)Nc3c(-c4ccccc4)nc4cc(C5(O)CC5)ccn34)ccc2C(F)(F)F)n1 [Compound 69, N-[7-(1-hydroxycyclopropyl)-2-phenylimidazo[1,2-a]pyridin-3-yl]-3-(1-methyl-1H-pyrazol-3-yl)-4-(trifluoromethyl) benzamide]	8.47
Cn1ccc(-c2cc(C(=O)Nc3c(-c4ccccc4)nc4cc(C(C)(C)O)ccn34)c(Cl)cc2C(F)(F)F)n1 [Compound 70, 2-chloro-N-[7-(1-hydroxy-1-methylethyl)-2-phenylimidazo[1,2-a]pyridin-3-yl]-5-(1-methyl-1H-pyrazol-3-yl)-4-(trifluoromethyl) benzamide]	8.92
Cc1ccnc(-c2cc(C(=O)Nc3c(-c4ccccc4)nc4cc(C(C)(C)O)ccn34)c(Cl)cc2C(F)(F)F)n1 [Compound 71, 2-chloro-N-[7-(1-hydroxy-1-methylethyl)-2-phenylimidazo[1,2-a]pyridin-3-yl]-5-(4-methylpyrimidin-2-yl)-4-(trifluoromethyl) benzamide]	8.12
Cn1ccc(-c2cc(C(=O)Nc3c(-c4ccccc4)[nH]c4ccccc34)c(F)cc2C(F)(F)F)n1 [Compound 72, 2-fluoro-5-(1-methyl-1H-pyrazol-3-yl)-N-(2-phenyl-1H-indol-3-yl)-4-(trifluoromethyl) benzamide]	8.39
Cc1cc(C(F)(F)F)c(-c2ccn(C)n2)cc1C(=O)Nc1c(-c2ccccc2)nc2cc(C(C)(C)O)ccn12 [Compound 75, N-[7-(1-hydroxy-1-methylethyl)-2-phenylimidazo[1,2-a]pyridin-3-yl]-2-methyl-5-(1-methyl-1H-pyrazol-3-yl)-4-(trifluoromethyl) benzamide]	8.35
O=C(Nc1c(-c2ccccc2)[nH]c2ccccc12)c1cc(-c2ncccn2)c(C(F)(F)F)cc1F [Compound 76, 2-fluoro-N-(2-phenyl-1H-indol-3-yl)-5-pyrimidin-2-yl-4-(trifluoromethyl) benzamide]	8.09
CC(=O)NCc1ccn2c(NC(=O)c3ccc(C(F)(F)F)c(-c4ccn(C)n4)c3)c(-c3ccccc3)nc2c1 [Compound 79, N-{7-[(acetylamino)methyl]-2-phenylimidazo[1,2-a]pyridin-3-yl}-3-(1-methyl-1H-pyrazol-3-yl)-4-(trifluoromethyl) benzamide]	8.09
Cn1ccc(-c2cc(C(=O)Nc3c(-c4ccccc4)nc4cc(CNC(=O)CO)ccn34)ccc2C(F)(F)F)n1 [Compound 80, N-(7-{[(hydroxyacetyl)amino]methyl}-2-phenylimidazo[1,2-a]pyridin-3-yl)-3-(1-methyl-1H-pyrazol-3-yl)-4-(trifluoromethyl) benzamide]	7.70
CNC(=O)NCc1ccn2c(NC(=O)c3ccc(C(F)(F)F)c(-c4ccn(C)n4)c3)c(-c3ccccc3)nc2c1 [Compound 81, N-(7-{[(methylcarbamoyl)amino]methyl}-2-phenylimidazo[1,2-a]pyridin-3-yl)-3-(1-methyl-1H-pyrazol-3-yl)-4-(trifluoromethyl) benzamide]	7.82
COC(=O)NCc1ccn2c(NC(=O)c3ccc(C(F)(F)F)c(-c4ccn(C)n4)c3)c(-c3ccccc3)nc2c1 [Compound 83, methyl{[3-({[3-(1-methyl-1H-pyrazol-3-yl)-4-(trifluoromethyl)phenyl]carbonyl}amino)-2-phenylimidazo[1,2-a]pyridin-7-yl]methyl}carbamate]	9.11
